The values that follow come from patent US20240252677A1, “ONE-COMPONENT DELIVERY SYSTEM FOR NUCLEIC ACIDS” (The Trustees of the University of Pennsylvania, priority 2021, published 2024).

A short description of series [1]: DLS size of dendrimersomes assembled from glycerol-JDs in water at different concentrations. The format is physicochemical. To be noted: for Dh (nm): size distribution by intensity. As to the method:
Assembly of all eight glycerol-JDs was performed by injection of their ethanol solution (50 μL) into 1 mL of Milli-Q water. The size distribution and structure of resulting DSs were analyzed by DLS (FIG. 84) and cryo-TEM. […] In a certain concentration range the size of DSs increased with the concentration of JDs injected in water or buffer. […] The dimensions of the assemblies were identical when the concentrations of the JDs in water were identical. Sizes of assemblies from mixtures of 1R and 1S in different ratios (1:3, 1:1 and 3:1), were also identical (FIG. 84). […] With the exception of the rotation of polarized light, the physical properties of enantiomers and their racemic mixtures must be identical.
Dynamic light scattering (DLS). Hydrodynamic diameters (Dh) of the self-assemblies of dendrimer molecules and their size distributions were measured on a Malvern Instruments particle sizer (Zetasizer® Nano S, Malvern Instruments, UK) equipped with 4 mW He—Ne laser (633 nm) and avalanche photodiode positioned at […] to the beam and temperature controlled cuvette holder. Experiments were performed at 25° C. in triplicate. The distribution of radius was intensity.

The nature of series [2]: pKa measurements of individual IAJD molecules by titration. The format is physicochemical. To be noted: individual IAJD molecule; for Avg pKa: average of pKa 1-3; for pKa 1: measurement 1; for pKa 2: measurement 2; for pKa: ethanol saturated with NaCl, titrated with 0.1 M aqueous HCl, Table 15. How it is done:
pKa measurements of individual IAJD Molecules was performed as follows. IAJD Molecules were first dissolved in ethanol (Sat. with NaCl) at a concentration of 1.5 mg/mL and the solution volume was 3 mL.
Then 0.1 M HCl solution was added to the above ethanol solution with an increment of 7.5 μL. The resulting pH after each addition of HCl solution was measured by an Thermo Scientific Orion Star A121 meter with Thermo Scientific Orion 8220BNWP pH probe. pKa was determined using the half equivalence point titration.

For `CCCCCCCCCCCCOc1cc(OCCCCCCCCCCCC)cc(C(=O)OCC(COC(=O)c2cc(OCCCCCCCCCCCC)cc(OCCCCCCCCCCCC)c2)OC(=O)C(C)(COC(=O)c2cc(OCCOCCOCCOC)c(OCCOCCOCCOC)c(OCCOCCOCCOC)c2)COC(=O)c2cc(OCCOCCOCCOC)c(OCCOCCOCCOC)c(OCCOCCOCCOC)c2)c1` [Compound 3, (3,5)-12G1-GC-(achiral)-BMPA-(3,4,5)-3EO-G2], the PDI in series [1] (JD 0.025 mg·mL−1 in water) worked out at 0.272; in series [1] (JD 0.05 mg·mL−1 in water) it was 0.241; in series [1] (JD 0.1 mg·mL−1 in water), 0.183; in series [1] (JD 0.25 mg·mL−1 in water), 0.153; in series [1] (JD 0.5 mg·mL−1 in water), 0.152; in series [1] (JD 0.75 mg·mL−1 in water), 0.236. Moreover, the PDI in series [1] (JD 1.0 mg·mL−1 in water) was 0.233. Besides, the “Dh (nm)” value in series [1] (JD 0.025 mg·mL−1 in water) is given as 72 nm; in series [1] (JD 0.05 mg·mL−1 in water), 97 nm; in series [1] (JD 0.1 mg·mL−1 in water), 123 nm; in series [1] (JD 0.25 mg·mL−1 in water), 144 nm; in series [1] (JD 0.5 mg·mL−1 in water), 162 nm; in series [1] (JD 0.75 mg·mL−1 in water), 224 nm. Also, the “Dh (nm)” value in series [1] (JD 1.0 mg·mL−1 in water) was determined as 266 nm.
Turning to `CCCCCCCCCCCCOc1cc(OCCCCCCCCCCCC)cc(C(=O)OCC(C)(COC(=O)c2cc(OCCCCCCCCCCCC)cc(OCCCCCCCCCCCC)c2)C(=O)OC(COC(=O)c2cc(OCCOCCOCCOC)c(OCCOCCOCCOC)c(OCCOCCOCCOC)c2)COC(=O)c2cc(OCCOCCOCCOC)c(OCCOCCOCCOC)c(OCCOCCOCCOC)c2)c1` [Compound 4, (3,5)-12G2-BMPA-GC-(achiral)-(3,4,5)-3EO-G1], the PDI amounted to 0.391 in series [1] (JD 0.025 mg·mL−1 in water); 0.266 in series [1] (JD 0.05 mg·mL−1 in water); 0.136 in series [1] (JD 0.1 mg·mL−1 in water); 0.180 in series [1] (JD 0.25 mg·mL−1 in water); 0.183 in series [1] (JD 0.5 mg·mL−1 in water); 0.233 in series [1] (JD 0.75 mg·mL−1 in water). Also, the PDI in series [1] (JD 1.0 mg·mL−1 in water) is reported as 0.291. The “Dh (nm)” value in series [1] (JD 0.025 mg·mL−1 in water) is on record as 100 nm; in series [1] (JD 0.05 mg·mL−1 in water) it was 102 nm; in series [1] (JD 0.1 mg·mL−1 in water), 119 nm; in series [1] (JD 0.25 mg·mL−1 in water) it was 132 nm; in series [1] (JD 0.5 mg·mL−1 in water), 166 nm; in series [1] (JD 0.75 mg·mL−1 in water), 210 nm. For the same compound, the “Dh (nm)” value in series [1] (JD 1.0 mg·mL−1 in water) stood at 284 nm.
With `CCCCCCCCCCCCOc1cc(CNC(=O)c2cc(OCCOCCOCCOC)c(OCCOCCOCCOC(=O)CCCN(C)C)c(OCCOCCOCCOC)c2)cc(OCCCCCCCCCCCC)c1` [IAJD 2], the “Avg pKa” value in series [2] is recorded as 6.20. In addition, the “pKa 1” value in series [2] (titration) stood at 6.20.
For `CCCCCCCCCCCCOc1cc(CNC(=O)c2cc(OCCOCCOCCOC(=O)CCCN(C)C)c(OCCOCCOCCOC)c(OCCOCCOCCOC(=O)CCCN(C)C)c2)cc(OCCCCCCCCCCCC)c1` [IAJD 4], the “Avg pKa” value in series [2] is reported as 6.43. The “pKa 1” value in series [2] (titration) is reported as 6.43.
Take `CCCCCCCCCCCCOc1cc(CNC(=O)c2cc(OCCOCCOCCOC(=O)CCCN(C)C)c(OCCOCCOCCOCc3ccccc3)c(OCCOCCOCCOC(=O)CCCN(C)C)c2)cc(OCCCCCCCCCCCC)c1` [IAJD 9]: the “Avg pKa” value in series [2] worked out at 6.56. Also, in series [2] (titration), the “pKa 1” value worked out at 6.52 and the “pKa 2” value is 6.52. Besides, the “pKa 3” value in series [2] (titration, measurement 3) came out at 6.64.
On to `CCCCCCCCCCCCOc1cc(OCCCCCCCCCCCC)cc(C(=O)OCC(COC(=O)c2cc(OCCCCCCCCCCCC)cc(OCCCCCCCCCCCC)c2)(COC(=O)c2cc(OCCOCCOCCOC)c(OCCOCCOCCOC)c(OCCOCCOCCOC(=O)CCCN(C)C)c2)NC(=O)c2cc(OCCOCCOCCOC)c(OCCOCCOCCOC)c(OCCOCCOCCOC)c2)c1` [IAJD 38], for which, in series [2], the “Avg pKa” value is recorded as 6.38. For the same compound, in series [2] (titration), the “pKa 1” value was found to be 6.43 and the “pKa 2” value worked out at 6.32.
`CCCCCCCCCCCCOc1cc(OCCCCCCCCCCCC)cc(C(=O)OCC(COC(=O)c2cc(OCCCCCCCCCCCC)cc(OCCCCCCCCCCCC)c2)(COC(=O)c2cc(OCCOCCOCCOC(=O)CCCN(C)C)c(OCCOCCOCCOC)c(OCCOCCOCCOC(=O)CCCN(C)C)c2)NC(=O)c2cc(OCCOCCOCCOC)c(OCCOCCOCCOC)c(OCCOCCOCCOC)c2)c1` [IAJD 41]: the “Avg pKa” value in series [2] came out at 6.36. Moreover, in series [2] (titration), the “pKa 1” value is given as 6.38 and the “pKa 2” value is 6.34.
Regarding `CCCCCCCCCCCCOc1cc(OCCCCCCCCCCCC)cc(C(=O)OCC(COC(=O)c2cc(OCCCCCCCCCCCC)cc(OCCCCCCCCCCCC)c2)(COC(=O)c2cc(OCCOCCOCCOC(=O)CCCN(C)C)c(OCCOCCOCCOC(=O)CCCN(C)C)c(OCCOCCOCCOC(=O)CCCN(C)C)c2)NC(=O)c2cc(OCCOCCOCCOC)c(OCCOCCOCCOC)c(OCCOCCOCCOC)c2)c1` [IAJD 42], the “Avg pKa” value in series [2] stood at 6.06. The “pKa 1” value in series [2] (titration) was 6.06.
The pKa is the negative logarithm of the acid dissociation constant. Lower therefore signals a group that gives up its proton readily. In the case of `CCCCCCCCCCCCOc1cc(COC(=O)CCCN(C)C)cc(OCCCCCCCCCCCC)c1` [IAJD 64, 3,5-Bis(dodecyloxy)benzyl 4-(dimethylamino)butanoate], in series [2] (titration), the pKa was 7.06.
Same read-out and setting: the result for `CCCCCCCCCCCCOc1cc(COC(=O)CCCN2CCN(C)CC2)cc(OCCCCCCCCCCCC)c1` [IAJD 66, 3,5-Bis(dodecyloxy)benzyl 4-(4-methylpiperazin-1-yl)butanoate] reads 6.37; that for `CCCCCCCCCCCCOc1cc(CNC(=O)CCCN2CCN(C)CC2)cc(OCCCCCCCCCCCC)c1` [IAJD 70, N-(3,5-bis(dodecyloxy)benzyl)-4-(4-methylpiperazin-1-yl)butanamide], 6.44.
